The record followed here is patent US7691579B2, “Methods and compositions for producing an enhanced immune response to a human papillomavirus immunogen” (priority 2005, dated 2010).

For experiment [1], the target named is T1, HLA-A2 (Homo sapiens, UniProt P04439, D140Y/D185E/D98H/E176V/E277Q/G131W/G231S/I119V/I121R/I166T/I218V/L300P/L318F/N151K/N90K/P208A/P217A/Q86G/Q94H/R138H/R169H/T345S).
T1 construct: The T2 cell expresses HLA-A2 and is TAP1 and TAP2 deficient; endogenous in cells; host or cells: T2 cells
Description: T2 binding assay (HLA-A2 stabilisation on T2 cells, fluorescence index). How it is done: The sequences are derived from HPV 16 E2. T2 cells were loaded with various concentrations of peptides. Level of surface class I molecules were assessed by flow cytometric analysis using mouse monoclonal antibodies specific for HLA-A2. Fluorescence index=Fluorescence after peptide stimulation/Fluorescence without peptide −1.
Since little was known about the MHC class I epitopes for E2, HLA-A2 binding sequences derived from HPV 16 E2 were investigated. […] To test the binding affinity of these peptides to HLA-A2, a T2 binding assay was performed. The T2 cell expresses HLA-A2 and is TAP1 and TAP2 deficient.

In experiment [2] the test system is C1R.ADD target cells pulsed with E2 peptides. Description: IFN-gamma ELISPOT assay in immunized AAD mice, response to E2. As to conditions: for IFN-gamma producing cells (ELISPOT) / T cell response to E2 (IFN-gamma ELISPOT), in words: AAD mice; for IFN-gamma producing cells (ELISPOT): E2 peptides + GM-CSF + anti-CD40 in IFA, boosted with E2 peptides in IFA; for T cell response to E2 (IFN-gamma ELISPOT), in words: protocol as labelled. Format: in vivo, HLA-A2 transgenic mice (AAD). The text has this: AAD Mice were immunized with three E2 peptides. […] A target cell, C1R.ADD, was pulsed with peptides. C1R.ADD alone was used as negative control, and E7 86-93 was used as a specificity control. Mice are immunized with the indicated 1st immunization and are then given the indicated 2nd immunization (booster immunization) four weeks later. The G1, G2, and G3 immunization protocols employed are as follows: G1 (1st immunization: IFA+GM-CSF+anti-CD40 antibody+E2 peptides; 2nd immunization: IFA+E2 peptides); G2 (1st immunization: IFA+GM-CSF+anti-CD40 antibody+E2 peptides; 2 immunization: none); G3 (1st immunization: none; 2nd immunization: IFA+E2 peptides).
AAD Mice were immunized with different combinations of VLP-E7E2 and E2 peptides with/without Gm-CSF and αCD40. Target cells were pulsed with E2 peptide. Immunization with E7 11-20 peptides is used as a control. The G1 and G2 immunization protocols employed are as follows: G1 (1st immunization: IFA+GM-CSF+anti-CD40 antibody+E2 69-77 peptides); G2 (1st immunization: L1-VLP-L2-E2-E7+GM-CSF+anti-CD40 antibody).
Target cells are C1R.ADD cells pulsed with the indicated peptides.
Immunization: Mice were immunized subcutaneously at the base of the tail with the chimeric VLPs. GM-CSF (Preprotech, Rocky Hill, N.J.) was given the day before and the same day as the VLP injection. Anti-CD40 (SouthernBiotech, Birmingham Ala.) was given with the VLP. Mice were also immunized with 50 nmoles of peptide in incomplete Freund's adjuvant (IFA) with or without GM-CSF (5 μg/mouse) and anti-CD40 (10 μg/mouse). All vaccines were prepared immediately prior to injection. Each group had 4 mice, and the pooled spleen cells from four mice were used for assays. 10 μg of VLP-E7E2 was given to a mouse. The MW of the VLP-E7E2 is about 5280 Kd (72×L1@55 Kd=3960 Kd, and 12×L2E7E2@110 kd=1320 Kd). The number of moles of VLP-E7E2 in 10 μg of total protein is about […].
ELISPOT assay: The number of IFN-gamma-producing cells is also determined by ELISPOT assay. The anti-IFN-gamma antibody, 5 μg/ml, in PBS are coated on Millipore's multiscreen-HA plate (Millipore, Marlborough, Mass.) overnight at 4° C. The plate is blocked by incubation in RPMI containing 10% FCS for 3 hours at room temperature, and then the plate is washed two or three times with PBS. Target cells, EL-4 or C1R.ADD, are incubated with or without peptides for 2 hour at room temperature, washed twice. Then, they were placed at 5,000 per well. The effector cells were from 40,000 to 50,000 per well. After a 20 hour incubation period at 37° C., the plate is washed six times with PBS containing 0.05% Tween 20. The biotin-labeled anti-IFN-gamma, at 2 μg/ml, is added to the plate. After a 3 hour incubation period at room temperature, the plate is washed six times, and developed using an ABC kit from Vector Lab (Burlingame, Calif.). The spots are counted using Immunspot™ CTL (Cleveland Ohio). Data are expressed as an average from triplicate wells.
Induction of CD8+ T Cell Response to E2 Peptides. […] One group of mice was boosted with E2 peptides in IFA emulsion (IFA-E2) two weeks later. An IFN-gamma ELISPOT assay was performed using spleen cells collected either two or four weeks after vaccination as shown in FIG. 14. The immunization protocol is shown in Table 4 below (50 nmoles of each immunogen was employed; “E2s” refers to E2 peptides).
Enhancing CTL Response to E2. […] When AAD mice were immunized with either 50 nmoles E2 69-77 with immune modulators in IFA or 24 pmoles of VLP-E7E2 with immune-modulators in aqueous solution, a marginal CD8+ T cell response to E2 was detected by ELISPOT assay using fresh isolated spleen cells from both groups of mice (FIG. 15, Panel A and Panel B). […]

Experiment [3] deals with wild type (SEQ ID NO: 1) and modified (SEQ ID NO: 9) E2 peptides. The experiment in a line: Elispot assay of mice immunized with wild type or modified E2 138-147 peptide. It counts as in vivo. As to conditions: mice immunized with the labelled peptide.

“Also recorded” adds a separate entry of the source.

Turning to ALQAIELQL [E2 69-77, HPV 16 E2 peptide], in experiment [1], the “binding to HLA-A2, in words” value is recorded as “high binding affinity; also recorded: displayed binding ability” and the “concentration at FI 0.5” value is 50 µM. In experiment [2], the “IFN-gamma producing cells (ELISPOT)” value stood at 32 spots/million and the “T cell response to E2 (IFN-gamma ELISPOT), in words” value (“T cell response to E2” for short) is recorded as “induce a CD8+ T cell response; also recorded: immunogenic”.
As to YLAEEASVTV [E2 138-147 modified], in experiment [1], the “binding to HLA-A2, in words” value is given as “higher HLA.A2 binding affinity”. Further, the “immune response to wild type and modified E2 peptides (Elispot)” value in experiment [3] (listed as modified peptide (SEQ ID NO: 9)) is “elicit an immune response to both”; in experiment [3] (listed as new peptide (SEQ ID NO: 9)), “more immunogenic”.
In the case of RLNVCQDKIL [E2 7-16, HPV 16 E2 peptide], the “binding to HLA-A2, in words” value in experiment [1] is “no binding activity”.
For the sequence “TLQDVSLEV [E2 93-101, HPV 16 E2 peptide]”, the “binding to HLA-A2, in words” value in experiment [1] was “did not bind; also recorded: no binding activity”. Besides, in experiment [2], the “T cell response to E2” value is given as “did not elicit a T cell response”.
On to YICEEASVTV [E2 138-147], for which, in experiment [1], the “binding to HLA-A2, in words” value is “high binding affinity; also recorded: displayed binding ability” and the “concentration at FI 0.5” value was found to be 50 µM. Also, the “immune response to wild type and modified E2 peptides (Elispot)” value in experiment [3] is “failed to elicit an immune response”. In addition, in experiment [2], the “IFN-gamma producing cells (ELISPOT)” value is 53 spots/million and the “T cell response to E2” value is given as “induce a CD8+ T cell response; also recorded: immunogenic”. The “IFN-gamma production (ELISPOT), response to E2” value in experiment [2] (boosted with E2 peptides in IFA four weeks after the initial immunization) is recorded as “more immunogenic”.
